Measurements from patent US9765038B2, “Heteroaryl compounds and uses thereof” (Celgene CAR LLC, priority 2010, dated 2017).

Assays:
[1] = biological target: T1, EGFR T790M/L858R (Homo sapiens (Human), UniProt P00533, L858R/T790M); assay: Omnia assay, EGFR (T790M/L858R) active enzyme; type: biochemical; settings: for Ratio WT/mutant: biochemical IC50, WT EGFR vs EGFR (T790M/L858R); for IC50: [EGFR-T790M/L858R]=2.5 nM, [ATP]=20 uM, 30 min pre-incubation
Experimental: (§7) Kinase reactions were started with the addition of 45 μL of the ATP/Tyr-Sox peptide substrate mix and monitored every 71 seconds for 60 minutes at λex360/λem485 in a Synergy^4 plate reader from BioTek (Winooski, Vt.).

[2] = biological target: EGFR double mutation L858R/T790M (H1975 cells) (Homo sapiens (Human), UniProt P00533, L858R/T790M); assay: EGFR signaling immunoblot (phospho-EGFR, phospho-S6) in H1975 cells; type: cell-based; settings: for Ratio WT/mutant: signaling EC50, WT EGFR (A431) vs H1975
Experimental: (§1) A431 human epidermoid carcinoma, H1975 human NSCLC and HCC827 human NSCLC adenocarcinoma cells were obtained from the American Type Culture Center (Manassas, Va.). A431 cells were grown in DMEM (Invitrogen, Carlsbad, Calif.) supplemented with 10% FBS (HyClone, South Logan, Utah) and 1% Penicillin-Streptomycin (P/S, Lonza, Walkersville, Md.).
(§2) All primary antibodies were obtained from Cell Signaling (Danvers, Mass.) and used at 1:1000. Secondary antibodies were used at 1:10,000. Goat anti-mouse IgG IRDye 800CW antibody was obtained from LiCor Biosciences (Lincoln, Nebr.) and goat anti-rabbit IgG Alexa Fluor 680 was obtained from Invitrogen.
(§3) Cells were grown in 12-well plates (Corning, Coring, N.Y.) to 90% confluence and then incubated in low-serum (0.1% FBS) media for 16-18 hr. […] A431 cells were then stimulated with 50 ng/ml EGF (Peprotech, Rocky Hill, N.J.) for 15 min. After treatment, cell monolayers were washed with cold PBS (Invitrogen) and immediately lysed by scrapping into 60 uL cold Cell Extraction Buffer (Invitrogen) supplemented with Complete Protease inhibitors (Roche, Indianapolis, Ind.) and PhosphoSTOP (Roche) phosphatase inhibitors.
(§4) Phospho-protein signals were quantitated using Odyssey Infrared Imaging (Li-Cor Biosciences).
(§5) Blots were normalized as indicated above. […] Normalized data was fitted using a sigmoidal curve analysis program (Graph Pad Prism version 5) with variable Hill slope to determine the EC50 values.

[3] = biological target: EGFR delE746-A750 mutation (HCC827 cells) (Homo sapiens (Human), UniProt P00533, DEL746-750); assay: EGFR signaling immunoblot in HCC827 cells; type: cell-based; settings: for Ratio WT/mutant: signaling EC50, WT EGFR (A431) vs HCC827
Experimental: as §1, §2, §3, §4, §5

[4] = biological target: pEGFR in H1975 cells (Homo sapiens (Human), UniProt P00533, L858R/T790M); settings: 500 nM for 1 hr, washout up to 24 hr, FIG. 3
[5] = biological target: T1, EGFR T790M/L858R; settings: for covalent modification of the protein: intact protein MS, I-1 within 30 minutes
[6] = biological target: WT EGFR (A431 cells) (Homo sapiens (Human), UniProt P00533); assay: EGFR signaling immunoblot (phospho-EGFR, phospho-S6) in A431 cells; type: cell-based; settings: FIG. 2
Experimental: as §1, §2, §3, §4
Blots were normalized as indicated above. […]

[7] = test system: H1975 cells (EGFR L858R/T790M); assay: Cell proliferation (CellTiter Glo), H1975 cells; type: cell-based, human; settings: GI50, WT EGFR (A431) vs H1975
Experimental: as §1
(§6) Growth inhibition (GI50) values were determined by Graph Pad Prism.

[8] = test system: HCC827 cells (EGFR delE746-A750); assay: Cell proliferation (CellTiter Glo), HCC827 cells; type: cell-based, human; settings: GI50, WT EGFR (A431) vs HCC827
Experimental: as §1, §6

[9] = biological target: EGFR-WT (Homo sapiens (Human), UniProt P00533); assay: Omnia assay, EGFR (WT) active enzyme; type: biochemical; settings: [EGFR-WT]=5 nM, [ATP]=15 uM, 30 min pre-incubation
Experimental: as §7

[10] = 10-fold excess of compound, MALDI, FIG. 4

SMILES	Ratio WT/mutant [1]	Ratio WT/mutant [2]	also measured
C=CC(=O)Nc1cccc(Nc2nc(Nc3ccccc3OC)ncc2C(F)(F)F)c1 [Compound I-1, N-(3-(2-(2-methoxyphenylamino)-5-(trifluoromethyl)pyrimidin-4-ylamino)phenyl)acrylamide]	>50	>50	Ratio WT/mutant [3]: >50; duration of action after washout (pEGFR) [4]: prolonged duration of action; mass shift [5, 10]: 488 Da; mass shift relative to compound mass [5, 10]: 113%; covalent modification of the protein [5]: completely modifies
C=CC(=O)Nc1cccc(Oc2nc(Nc3ccccc3OC)ncc2C(F)(F)F)c1 [Compound I-2, N-(3-(2-(2-methoxyphenylamino)-5-(trifluoromethyl)pyrimidin-4-yloxy)phenyl)acrylamide]	–	–	duration of action after washout (pEGFR) [4]: prolonged duration of action; covalent modification of the protein [5]: covalently modify the protein
C=CC(=O)Nc1cccc(Nc2nc(Nc3ccc(OC)c(OC)c3OC)ncc2Br)c1 [Compound I-5, N-(3-(5-bromo-2-(2,3,4-trimethoxyphenylamino)pyrimidin-4-ylamino)phenyl)acrylamide]	>45	>50	–
C=CC(=O)Nc1cccc(Oc2nc(Nc3cccc(OC)c3OC)ncc2Br)c1 [Compound I-6, N-(3-(5-bromo-2-(2,3-dimethoxyphenylamino)pyrimidin-4-yloxy)phenyl)acrylamide]	>45	–	–
C=CC(=O)Nc1cccc(Oc2nc(Nc3ccc(OC)c(OC)c3OC)ncc2Cl)c1 [Compound I-7, N-(3-(5-chloro-2-(2,3,4-trimethoxyphenylamino)pyrimidin-4-yloxy)phenyl)acrylamide]	>25	>50	WT-EGFR sparing [6]: completely WT-EGFR sparing; inhibition of pEGFR and downstream S6 ribosomal protein ([2]; H1975 cells, FIG. 1 and FIG. 2): inhibiting pEGFR and its downstream target S6 Ribosomal protein; Ratio WT/mutant [7]: >10; Ratio WT/mutant [8]: >15; covalent modification of the protein [5]: covalently modify the protein
C=CC(=O)Nc1cccc(Oc2nc(Nc3ccc(OC)c(OC)c3OC)ncc2C(F)(F)F)c1 [Compound I-10, N-(3-(5-(trifluoromethyl)-2-(2,3,4-trimethoxyphenylamino)pyrimidin-4-yloxy)phenyl)acrylamide]	>50	>50	–
C=CC(=O)Nc1cccc(Nc2nc(Nc3ccc(OC)c(OC)c3OC)ncc2C(F)(F)F)c1 [Compound I-11, N-(3-(5-(trifluoromethyl)-2-(2,3,4-trimethoxyphenylamino)pyrimidin-4-ylamino)phenyl)acrylamide]	>25	>50	Ratio WT/mutant [3]: >5
C=CC(=O)Nc1cccc(Nc2nc(Nc3cccc(OC)c3OC)ncc2Br)c1 [Compound I-14, N-(3-(5-bromo-2-(2,3-dimethoxyphenylamino)pyrimidin-4-ylamino)phenyl)acrylamide]	>50	–	IC50 [9]: 300 to 1000 nM; IC50 [1]: 1 to 10 nM
C=CC(=O)Nc1cccc(Oc2nc(Nc3cccc(OC)c3OC)ncc2Cl)c1 [Compound I-17, N-(3-(5-chloro-2-(2,3-dimethoxyphenylamino)pyrimidin-4-yloxy)phenyl)acrylamide]	>35	–	IC50 [9]: 300 to 1000 nM; IC50 [1]: 10 to 100 nM; EC50 ([3]; HCC827 cells, signaling, 1 hr): 500 to 1000 nM
C=CC(=O)Nc1cccc(Nc2nc(Nc3ccccc3OC)ncc2Cl)c1 [Compound I-18, N-(3-(5-chloro-2-(2-methoxyphenylamino)pyrimidin-4-ylamino)phenyl)acrylamide]	>30	–	–
C=CC(=O)Nc1cccc(Oc2nc(Nc3ccccc3OC)ncc2F)c1 [Compound I-19, N-(3-(5-fluoro-2-(2-methoxyphenylamino)pyrimidin-4-yloxy)phenyl)acrylamide]	>10	–	–
C=CC(=O)Nc1cccc(Nc2nc(Nc3ccc(OC)cc3OC)ncc2Br)c1 [Compound I-20, N-(3-(5-bromo-2-(2,4-dimethoxyphenylamino)pyrimidin-4-ylamino)phenyl)acrylamide]	>45	–	–
C=CC(=O)Nc1cccc(Nc2nc(Nc3ccc(OC)cc3OC)ncc2Cl)c1 [Compound I-21, N-(3-(5-chloro-2-(2,4-dimethoxyphenylamino)pyrimidin-4-ylamino)phenyl)acrylamide]	>50	>5	–
